From EP4775577A1, “RAS INHIBITOR” (Tyligand Bioscience (Shanghai) Limited, priority 2023, dated 2025)

Experiments:
[1] = system: KRAS G12V mutant NCI-H727 cells; assay: Proliferation inhibition of NCI-H727 cells, 3D CellTiter-Glo assay (Method B); format: cell-based, human; conditions: Homo sapiens, NCI-H727, 120 h, Method B; 3D culture with 0.65% methylcellulose, 5 days, CTG; read-out: NCI-H727 IC50/nM
Procedure, shortened: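 Cells grown in 3D medium (RPMI-1640, 10% FBS, 0.65% methylcellulose) overnight, then treated 5 days at 37 °C, 5% CO2 with 9 threefold dilutions from 10 µM top working concentration, duplicate wells. CellTiter-Glo luminescence read; IC50 (nM) fitted by dose-response-inhibition equation.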

[2] = system: KRAS G12D mutant AGS cells; assay: Proliferation inhibition of AGS cells, CellTiter-Glo assay; format: cell-based, human; conditions: Homo sapiens, AGS, 72 h, 3 days, CTG; read-out: AGS IC50/nM
Procedure, shortened: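 AGS cells at 1500 cells/well in F12K + 10% FBS were exposed for 3 days at 37°C to nine 3-fold dilutions from 10 µM top concentration, in duplicate. Viability read by CellTiter-Glo luminescence; IC50 (nM) from dose-response-inhibition fitting.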

[3] = system: human lung cancer cells NCI-H441 with KRAS-G12V mutation; assay: Antitumor effect in NCI-H441 subcutaneous xenograft model; format: in vivo, NU/NU mice; conditions: 20 mpk, PO; for Tumor volume (mm^3) (day 16): BID×17; for TGI%: BID×17, day 16
Description: NCI-H441 cells were purchased from ATCC (catalog number: HTB-174). Male NU/NU mice were purchased from Jiangsu Jicui Yaokang Biotechnology Co., Ltd.
NCI-H441 cells were cultured in RPMI-1640 medium containing 10% FBS. Cells in the logarithmic growth phase were collected and resuspended in PBS to an appropriate concentration for subcutaneous tumor inoculation in mice. Experimental mice were subcutaneously inoculated in the right posterior back at a seeding density of 1×10^6 cells/mouse+Matrigel, with a seeding volume of 0.1 mL. When the average tumor volume reached ~150 mm^3, mice were randomly assigned to groups based on tumor size and body weight for drug administration. Drug administration began immediately after grouping, and the day of administration was considered day 0. The drug was administered to the mice twice daily via gavage at doses of 10 mpk, 20 mpk, 30 mpk, or a solvent control (0.5% Tween 80+99.5% of 0.5% MC (400 cp) or 0.5% MC (400 cp)). During the experiment, mouse body weight and tumor size were measured twice weekly. Tumor size was calculated using the formula: Tumor volume (mm^3)=0.5×(Tumor long diameter × Tumor short diameter^2). Relative tumor inhibition rate (TGI) (%): TGI%=[1-(Average tumor volume at the end of treatment in a given treatment group - Average tumor volume at the start of treatment in the treatment group) / (Average tumor volume at the end of treatment in the solvent control group - Average tumor volume at the start of treatment in the solvent control group)] × 100%.

[4] = system: KRAS G12S mutant A549 cells; assay: Proliferation inhibition of A549 cells, 3D CellTiter-Glo assay; format: cell-based; conditions: Homo sapiens, A549, 120 h, read-out: A549 IC50/nM
Description: A549 cells (Nanjing Kebai Biotechnology Co., Ltd., catalog number CBP60084, adherent, culture medium (F12K Nutrient Mixture+10%FBS (GIBCO, Cat#10091-148) at 37°C, 5%CO2, and 95% humidity.
3D Cell Viability Assay: Cells in the logarithmic growth phase were harvested and counted using a platelet counter. Cell viability was assessed using the trypan blue exclusion method to ensure a viability of over 90%. The 3D cell culture medium was prepared by adding 1% MC (methylcellulose, Sigma, Cat#M0512) F-12K medium and 10% FBS. The cell concentration was adjusted to approximately 7407 cells/mL using the 3D medium, and the methylcellulose (MC) content was set to 0.65%. Then, 135 µL of cell suspension was added to each 96-well clear, flat-bottomed, black-walled plate (Greiner, Cat#655096). The cells in the 96-well plates were cultured overnight at 37°C with 5% CO2.
Drug preparation for IC50 assay: A 10-fold drug solution was prepared using culture medium. […] of the drug solution was added to each well of a 96-well plate seeded with cells to achieve a working concentration of up to 10 µM, with a 3× dilution, and 9 concentrations. 2 replicate wells for each drug concentration were set. The cells in the drug-treated 96-well plates were cultured at 37°C and 5% CO^2 for additional5 days, then CTG assay (CellTiter-Glo® Luminescent Cell Viability Assay (Promega, Cat#G7573)) were performed.
The cell plate was equilibrated to room temperature for 30 minutes and the CTG reagent was thawed. 75 µL of CTG solution was added to each well for detection, and the plate was shaken on an orbital shaker for 5 minutes to lyse the cells. The cell plate was placed at room temperature for 25 minutes to stabilize the cryo-luminescence signal and the cryo-luminescence value was read (EnVision® multi-plate reader, PerkinElmer#2105).
Data was analyzed using GraphPad Prism software. The dose-response-inhibition equation was used to fit the data to obtain the dose-response curve, and the IC50 value (nM) was calculated accordingly. [formula]

[5] = system: human pancreatic cancer cells HPAC; conditions: po, 20 mg/kg, 408 h
Description: The following materials were used in this experiment: NOD/SCID mice, 6-8 weeks old, female, Jiangsu Jicui Yaokang Biotechnology Co., Ltd.; HPAC cells (carrying KRas G12D mutant protein, ATCC); Captisol (Wuhan Fengyao Tonghui Chemical Products Co., Ltd., Cas#182410-00-0); sodium acetate (aladdin) MC (sigma, 9004-67-5).
The experiment was conducted as follows: 6- to 8- week-old female NOD/SCID mice were subcutaneously inoculated with 1×10^7 HPAC cells in their right posterior back, with an inoculation volume of 0.1 mL. When the tumor reached an average volume of 150 mm^3, mice were randomly assigned to groups based on tumor size and body weight for drug administration. The day of drug administration was considered day 0. The test compound was administered by gavage to four mice in each group, while the control group received an equal volume of the solvent via gavage.
During the experiment, tumor volume and body weight were measured twice a week. Tumor volume was calculated using the formula: Tumor volume (mm^3)=0.5×(tumor long diameter×tumor short diameter^2). The mean tumor inhibition rate (TGI%) was calculated as follows: [(average tumor volume in the control group-average initial tumor volume in the control group)-(average tumor volume in the treatment group - average initial tumor volume in the treatment group)] / (average tumor volume in the control group - average initial tumor volume in the control group).

[6] = Pharmacokinetics in mice; conditions: mouse, po, 20 mg/kg
Description: (§1) Male CD-1 mice, aged 6-8 weeks, were purchased from Zhejiang Vital River Laboratory Animal Co., Ltd.
(§2) For the PO administration group, compounds were formulated in 0.5% Tween 80 and 99.5% (0.5%MC (400cp)) vehicle or 0.5%MC (400cp) vehicle to a final concentration of 1 mg/mL or 2 mg/mL for each compound. The drug formulation was administered to CD-1 mice via gavage at a dose of 10 mL/kg. Blood samples were collected from the submandibular vein or other suitable means at 15 min, 30 min, 1 h, 2 h, 4 h, 6 h, 8 h, and 24 h after administration. The blood samples were centrifuged at low temperature for 5 minutes, and the plasma was collected and stored at -80°C for analysis.
(§3) 10 µL of plasma sample was taken, 200 µL of methanol containing an internal standard as a precipitant was added to precipitate plasma proteins, the compounds to be tested in the plasma was extracted, centrifuged at low temperature, and 10 µL of the supernatant was injected. The drug concentration in blood plasma was analyzed by LC-MS/MS. The pharmacokinetic parameters were calculated using Winnonlin based on the blood drug concentration data at different time points.

[7] = in vivo; conditions: mouse, po, 20 mg/kg
Description: as §1, §2, §3

SMILES | IC50 [1] [nM] | IC50 [2] [nM] | Tumor volume (mm^3) (day 16) [3] | TGI% [3] [%] | IC50 [4] [nM] | TGI% [5] [%] | Tumor volume (mm^3) (day 17) [5] | AUC(0-t) at 8 h ([6]; plasma) [ng·h/mL] | AUC(0-t) at 8 h [7] [ng·h/mL] | AUC(0-t) at 8 h ([6]; in vivo) [ng·h/mL]
[2H]C([2H])([2H])N1CCC(=CF)C(C)(COc2nc(N3Cc4cc(C(=O)N(C)C)nn4CCC3C)c3cc(Cl)c(-c4c(F)ccc5sc(N)c(C#N)c45)c(F)c3n2)C1 (stereo not shown) [Example 255A] | < 1.5 | < 1.5 | 259 | 74 | – | – | – | – | – | –
CCc1cc2c(N3Cc4cc(C(=O)N(C)C)nn4CC[C@@H]3C)nc(OC[C@]3(C)CN(CC)CC/C3=C\F)nc2c(F)c1-c1c(F)ccc2sc(N)c(C#N)c12 (single isomer, unassigned) [Example 175A] | < 1.5 | < 1.5 | 266 | 73 | 23.3 | – | – | – | – | –
[2H]C([2H])([2H])N1CCC(=CF)C(C)(COc2nc(N3CCCn4nc(C(=O)N(C)C)c(Cl)c4C3)c3cc(CC)c(-c4c(F)ccc5sc(N)c(C#N)c45)c(F)c3n2)C1 (atropisomer, axis not shown) [Example 265A] | 2.8 | < 1.5 | 330 | 57 | – | 80 | 237 | – | – | –
[2H]C([2H])([2H])N1CC/C(=C\F)[C@](C)(COc2nc(N3Cc4cc(C(=O)N(C)C)nn4CC[C@@H]3C)c3cc(C(F)(F)F)c(-c4c(F)ccc5sc(N)c(C#N)c45)c(F)c3n2)C1 (single isomer, unassigned) [Example 247A] | < 1.5 | < 1.5 | 162 | 97 | – | 98 | 161 | – | – | –
[2H]C([2H])([2H])C([2H])([2H])N1CC/C(=C\F)[C@](C)(COc2nc(N3Cc4c(COC)c(C(=O)N(C)C)nn4CC[C@@H]3C)c3cc(Cl)c(-c4c(F)ccc5sc(N)c(C#N)c45)c(F)c3n2)C1 (atropisomer, axis not shown) [Example 243A] | < 1.5 | < 1.5 | – | – | – | – | – | 9960 | – | –
[2H]C([2H])([2H])N1CC/C(=C\F)[C@](C)(COc2nc(N3CCCn4nc(C(=O)N(C)C)c(Cl)c4C3)c3cc(C4CC4)c(-c4c(F)ccc5sc(N)c(C#N)c45)c(F)c3n2)C1 [Example 266A] | 3 | < 1.5 | 307 | 63 | – | – | – | – | – | –
CC[C@H]1CCn2nc(C(=O)N(C)C)c(COC)c2CN1c1nc(OC[C@]2(C)CN(CC)CC/C2=C\F)nc2c(F)c(-c3c(F)ccc4sc(N)c(C#N)c34)c(Cl)cc12 (single isomer, unassigned) [Example 240A] | < 1.5 | 2.5 | – | – | – | – | – | 2920 | – | –
CCN1CC/C(=C\F)[C@](C)(COc2nc(N3Cc4c(COC)c(C(=O)N(C)C)nn4CC[C@@H]3C)c3cc(C(F)(F)F)c(-c4c(F)ccc5sc(N)c(C#N)c45)c(F)c3n2)C1 (single isomer, unassigned) [Example 232A] | < 1.5 | < 1.5 | – | – | – | – | – | – | 1520 | –
CCN1CC/C(=C\F)[C@](C)(COc2nc(N3Cc4c(O)c(C(=O)N(C)C)nn4CC[C@@H]3C)c3cc(Cl)c(-c4c(F)ccc5sc(N)c(C#N)c45)c(F)c3n2)C1 (single isomer, unassigned) [Example 233A] | < 1.5 | < 1.5 | – | – | – | – | – | – | – | 822
[2H]C([2H])([2H])N(C(=O)c1nn2c(c1COC)CN(c1nc(OC([2H])([2H])[C@]3(C)CN(CC)CC/C3=C\F)nc3c(F)c(-c4c(F)ccc5sc(N)c(C#N)c45)c(Cl)cc13)[C@@H](C)CC2)C([2H])([2H])[2H] (single isomer, unassigned) [Example 235A] | < 1.5 | < 1.5 | – | – | – | – | – | 2990 | – | –
